Tested on: s.c. BxPC3 tumors
Assay: Protocol 146: radiation dosimetry (absorbed doses, MIRD)
Type: in vivo, SCID mice
Details: for Mean absorbed dose, RBE = 1 / Mean absorbed dose, RBE = 5: 20 μCi, pretargeted, tumor-bearing SCID
Description: Absorbed doses were calculated following the formalism outlined in Pamphlet No. 21 from the Medical Internal Radiation Dose (MIRD) Committee (Bolch W E, Eckerman K F, Sgouros G, and Thomas S R. J Nucl Med 2009; 50:477-484). Formally, the absorbed dose D(rT) in a target tissue or region rT is calculated as the time-integral of the activity A(rs,t) multiplied by the absorbed dose rate per unit activity S(rT←rs) summed over all source regions rs. Given that the vast majority of energy released by the ^212Pb decay chain comes from alpha radiation and furthermore by the much higher biological effectiveness of alpha radiation (as characterized by the relative biological effectiveness, RBE) two approximations were made: • 1. the energy is absorbed locally due to the short range of the alpha particles, which means that only the term s(rT←rT) is Considered, and • 2. the contribution from beta and gamma radiation is neglected.
With Δα being the energy released by alpha decays, or rather the sum of the mean energies released by alpha decays in the decay chain of ^212Pb, here expressed in units […], the absorbed dose in a target tissue or region rT is calculated by the formula: […]
The calculations are based on the composite (average) decay-corrected radioactive concentration at time t, expressed as [% ID^t/g]t. In a first step, these are transformed into radioactive concentrations as μCi per kg tissue weight for the target tissue rT:
AQ[μCi] is the injected activity and λ is the exponential decay rate for ^212Pb, 0.0651 h^−1 (corresponding to the 10.6-hour half-life).
In a second step, the radioactive concentration was integrated over time for each tissue. This was achieved using the “Linear Log Trapezoidal calculation method” in the pharmacokinetic software Phoenix WinNonlin 6.4 (Certara USA, Inc., 100 Overlook Center, Suite 101, Princeton, N.J. 08540 USA). The model type “Plasma” was used with uniform weighting.
In the final step, absorbed doses were calculated by multiplying the time integrals of the radioactive concentration by the energy release Δα=170·10^−6J/(μCi·h).
The mean absorbed doses in Gy calculated for protocol 146 are shown in Table 24, both as absolute values (RBE=1) and corrected for the higher cytotoxicity of alpha emitters (RBE=5).

## NC(=O)CN1CCN(CC(N)=O)CCN(CC(N)=O)CCN(CC(N)=O)CC1.[212Pb+2] [^212Pb-DOTAM]
20 μCi ^212Pb-DOTAM, RBE=1
  absorbed dose in most normal tissues, except bladder: below 2 Gy
Abdominal fat
  Mean absorbed dose, RBE = 1: 1.25 Gy
  Mean absorbed dose, RBE = 5: 6.25 Gy
Bladder
  Mean absorbed dose, RBE = 1: 6.53 Gy
  Mean absorbed dose, RBE = 5: 32.64 Gy
Blood
  Mean absorbed dose, RBE = 1: 0.72 Gy
  Mean absorbed dose, RBE = 5: 3.60 Gy
Brain
  Mean absorbed dose, RBE = 1: 0.04 Gy
  Mean absorbed dose, RBE = 5: 0.19 Gy
Colon
  Mean absorbed dose, RBE = 1: 0.43 Gy
  Mean absorbed dose, RBE = 5: 2.17 Gy
Femoral bone
  Mean absorbed dose, RBE = 1: 0.27 Gy
  Mean absorbed dose, RBE = 5: 1.33 Gy
Heart
  Mean absorbed dose, RBE = 1: 0.33 Gy
  Mean absorbed dose, RBE = 5: 1.63 Gy
Kidneys
  Mean absorbed dose, RBE = 1: 1.43 Gy
  Mean absorbed dose, RBE = 5: 7.14 Gy
Liver
  Mean absorbed dose, RBE = 1: 0.22 Gy
  Mean absorbed dose, RBE = 5: 1.09 Gy
Lung
  Mean absorbed dose, RBE = 1: 1.34 Gy
  Mean absorbed dose, RBE = 5: 6.69 Gy
Muscle
  Mean absorbed dose, RBE = 1: 0.29 Gy
  Mean absorbed dose, RBE = 5: 1.47 Gy
Pancreas
  Mean absorbed dose, RBE = 1: 0.36 Gy
  Mean absorbed dose, RBE = 5: 1.80 Gy
Serum
  Mean absorbed dose, RBE = 1: 1.64 Gy
  Mean absorbed dose, RBE = 5: 8.20 Gy
Skin
  Mean absorbed dose, RBE = 1: 0.47 Gy
  Mean absorbed dose, RBE = 5: 2.33 Gy
Small intestine
  Mean absorbed dose, RBE = 1: 0.22 Gy
  Mean absorbed dose, RBE = 5: 1.08 Gy
Spleen
  Mean absorbed dose, RBE = 1: 0.27 Gy
  Mean absorbed dose, RBE = 5: 1.36 Gy
Stomach
  Mean absorbed dose, RBE = 1: 0.24 Gy
  Mean absorbed dose, RBE = 5: 1.20 Gy
Tail
  Mean absorbed dose, RBE = 1: 0.54 Gy
  Mean absorbed dose, RBE = 5: 2.69 Gy
Tumor (BxPC3)
  Mean absorbed dose, RBE = 1: 19.91 Gy
  Mean absorbed dose, RBE = 5: 99.55 Gy
Uterus
  Mean absorbed dose, RBE = 1: 0.61 Gy
  Mean absorbed dose, RBE = 5: 3.04 Gy

Source: patent publication US20220031871A1, “ANTIBODIES FOR CHELATED RADIONUCLIDES AND CLEARING AGENTS” (Hoffmann-La Roche Inc., priority 2018, published 2022)
